Results on nine compounds are retold here after ChEMBL document CHEMBL1201862, “PubChem BioAssay data set” (2004).

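Where inhibition never reached the appropriate level, the endpoint shown equals the highest concentration tested. Otherwise, values were interpolated linearly from a five-concentration, 48-hour dose response in 96-well plates. Here, GI50 denotes the concentration required for 50% inhibition of growth.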 Activity calls are given as the source filed them. Rule as the data show it: active = GI50 up to about 1.1 µM and inactive = higher.

Among the test systems are DU-145; EKVX; HOP-62; M14; MCF7; MDA-MB-231; NCI-H226; OVCAR-5; RPMI-8226; SK-MEL-2; SK-OV-3; TK-10; UACC-62; CCRF-CEM; HL-60; K562; RXF 393; SF-539; SW-620.
Common to all, as to test: NCI anticancer screen, dose series, 48 h

`Oc1ccc(-c2c3c(nc4c2CCc2ccc(Br)cc2-4)-c2cc(Br)ccc2CC3)cc1`: the GI50 in the assay with DU-145 is 25.1 µM (inactive); in the assay on EKVX, 22 µM (inactive); with HOP-62 it was 17.2 µM (inactive); with M14, 23.9 µM (inactive); in the assay with MCF7 it was 16.8 µM (inactive); in the assay on MDA-MB-231, 17.7 µM (inactive). The GI50 with NCI-H226 was 23.3 µM (inactive); with OVCAR-5, 18 µM (inactive); with RPMI-8226, 26.9 µM (inactive); with SK-MEL-2, 16.8 µM (inactive); with SK-OV-3 it was 16.5 µM (inactive); in the assay on TK-10 it was 21.1 µM (inactive). Further, in the assay with UACC-62, the GI50 was 21.3 µM (inactive).

As to `COc1ccc(/C=C2\CC3C4CC=C5C[C@@H](O)CC[C@]5(C)C4CC[C@]3(C)C2=O)cc1OC` (stereo partly drawn), the GI50 was 20.7 µM (inactive) with CCRF-CEM; 27.5 µM (inactive) with DU-145; 28.2 µM (inactive) with EKVX; 13.1 µM (inactive) in the assay on HL-60; 44 µM (inactive) in the assay on HOP-62; 12.5 µM (inactive) with K562. Also, the GI50 with M14 was 65 µM (inactive); in the assay with MCF7, 23.3 µM (inactive); with MDA-MB-231, 25.8 µM (inactive); in the assay with NCI-H226, 29.4 µM (inactive); in the assay with OVCAR-5 it was 43.5 µM (inactive); in the assay with RPMI-8226, 10.2 µM (inactive). The GI50 is 34 µM (inactive) in the assay with RXF 393; 57.8 µM (inactive) with SF-539; 24.2 µM (inactive) with SK-MEL-2; 41.6 µM (inactive) in the assay on SK-OV-3; 65.6 µM (inactive) in the assay with SW-620; 32.3 µM (inactive) with TK-10. In addition, in the assay with UACC-62, the GI50 was 42.9 µM (inactive).

For `O=[N+]([O-])c1ccc(NS(=O)(=O)C(F)(F)F)cc1`, the GI50 with CCRF-CEM is 92.9 µM (inactive); with DU-145, > 100 µM (inactive); in the assay with EKVX, > 100 µM (inactive); in the assay with HL-60, > 100 µM (inactive); in the assay on HOP-62, > 100 µM (inactive); in the assay with M14, > 100 µM (inactive). Further, the GI50 with MCF7, in the assay with MDA-MB-231, in the assay with NCI-H226, in the assay on OVCAR-5, in the assay on RXF 393 and in the assay on SF-539 was > 100 µM (inactive) throughout. Also, the GI50 with SK-MEL-2, with SK-OV-3, in the assay on SW-620, in the assay with TK-10 and with UACC-62 was > 100 µM (inactive) each time.

`Cc1nc(C)c(C(=O)NNC(=O)Cc2ccccc2)cc1C(=O)NNC(=O)Cc1ccccc1`: the GI50 in the assay with CCRF-CEM, with DU-145, in the assay with EKVX, with HL-60, in the assay with HOP-62 and in the assay with K562 was > 100 µM (inactive) each time. Also, the GI50 in the assay with M14, in the assay with MCF7, in the assay with MDA-MB-231, with NCI-H226, in the assay on OVCAR-5 and with RPMI-8226 was > 100 µM (inactive) in each case. Besides, the GI50 in the assay on RXF 393, in the assay with SF-539, in the assay with SK-MEL-2, in the assay on SK-OV-3, in the assay on SW-620 and in the assay on TK-10 was > 100 µM (inactive) each time. Also, the GI50 in the assay on UACC-62 was > 100 µM (inactive).

For `[N-]=[N+]=NC1(c2ccccc2)C(=O)c2cccc3c4ccccc4n(c23)C1=O` (stereo not drawn), the GI50 in the assay with CCRF-CEM was 64.3 µM (inactive); in the assay on DU-145, > 100 µM (inactive); with EKVX, 92.3 µM (inactive); in the assay with HL-60 it was < 0.01 µM (active); in the assay on HOP-62 it was > 100 µM (inactive); with M14, > 100 µM (inactive). Moreover, the GI50 was 54 µM (inactive) in the assay on MCF7; > 100 µM (inactive) with MDA-MB-231; > 100 µM (inactive) in the assay with NCI-H226; > 100 µM (inactive) with OVCAR-5; 45.3 µM (inactive) with RPMI-8226; > 100 µM (inactive) in the assay with RXF 393. Moreover, the GI50 was > 100 µM (inactive) in the assay with SF-539; > 100 µM (inactive) in the assay with SK-MEL-2; > 100 µM (inactive) with SK-OV-3; > 100 µM (inactive) in the assay on SW-620; > 100 µM (inactive) with TK-10; 50 µM (inactive) in the assay on UACC-62.

With `O=C1CCC2(c3ccc(Cl)cc3)Nc3ncncc3N12` (stereo not drawn), the GI50 in the assay with CCRF-CEM, in the assay with DU-145, in the assay on EKVX, in the assay on K562, with M14 and in the assay with MCF7 was > 10 µM (inactive) each time. The GI50 in the assay on MDA-MB-231 was 0.001 µM (active); with NCI-H226 it was > 10 µM (inactive); in the assay on OVCAR-5, > 10 µM (inactive); in the assay with SF-539, > 10 µM (inactive); in the assay with SK-MEL-2, > 10 µM (inactive); in the assay on SK-OV-3, > 10 µM (inactive). In addition, the GI50 in the assay with SW-620, in the assay with TK-10 and with UACC-62 was > 10 µM (inactive) each time.

With `CCn1c2ccccc2c2cc(/N=N\c3ccc(C#N)cc3)ccc21`, the GI50 was > 100 µM (inactive) with CCRF-CEM; 62.7 µM (inactive) in the assay with DU-145; 33.3 µM (inactive) with EKVX; 32.1 µM (inactive) in the assay with HL-60; 28 µM (inactive) in the assay with HOP-62; 25.9 µM (inactive) in the assay on M14. Further, the GI50 is 4.41 µM (inactive) in the assay with MCF7; 17 µM (inactive) in the assay on MDA-MB-231; 56.8 µM (inactive) in the assay with NCI-H226; 31.6 µM (inactive) in the assay on OVCAR-5; 32.8 µM (inactive) in the assay on SF-539; > 100 µM (inactive) with SK-MEL-2. The GI50 is 40.8 µM (inactive) in the assay on SK-OV-3, > 100 µM (inactive) with SW-620, 32.1 µM (inactive) with TK-10 and 61.4 µM (inactive) with UACC-62.

For the compound `CC(C)OP(=O)(c1ccccc1)c1ccc2c(c1)OCCOCCOCCOCCO2` (stereo not drawn), the GI50 in the assay with CCRF-CEM, in the assay with DU-145, in the assay on EKVX, with HL-60, in the assay with HOP-62 and in the assay with K562 was > 100 µM (inactive) throughout. The GI50 in the assay on MCF7, with MDA-MB-231, in the assay with NCI-H226, with RPMI-8226, in the assay on SF-539 and in the assay with SK-OV-3 was > 100 µM (inactive) in each case. In addition, the GI50 in the assay with SW-620, with TK-10 and in the assay with UACC-62 was > 100 µM (inactive) each time.

Turning to `O=C1/C(=C/c2ccc(Cl)cc2)NC(=S)N1CN1CCOCC1`, the GI50 was 74 µM (inactive) in the assay on CCRF-CEM; > 100 µM (inactive) with DU-145; > 100 µM (inactive) in the assay with EKVX; > 100 µM (inactive) with HOP-62; > 100 µM (inactive) in the assay on K562; > 100 µM (inactive) in the assay on M14. Also, the GI50 in the assay on MCF7, in the assay on MDA-MB-231, in the assay with NCI-H226, in the assay with OVCAR-5, in the assay on RPMI-8226 and in the assay on SK-MEL-2 was > 100 µM (inactive) in each case. In addition, the GI50 with SK-OV-3, in the assay with SW-620, in the assay with TK-10 and with UACC-62 was > 100 µM (inactive) in each case.
